In one series the target is PDE9A (Homo sapiens (Human), UniProt O76083). The following applies: concentrations of up to 100 μM; cited from earlier work.
The target in another series is Murine PDE9A (Mus musculus (Mouse), UniProt O70628). The following applies: concentrations below 200 μM; cited from earlier work.

This is an account of results in US8741907B2, “Alkyl-substituted pyrazolopyrimidines” (Boehringer Ingelheim International GmbH, priority 2002, dated 2014).

As usually defined, the melting point is the temperature of the solid-liquid transition.

Sequence of PDE9A (O76083 whole entry): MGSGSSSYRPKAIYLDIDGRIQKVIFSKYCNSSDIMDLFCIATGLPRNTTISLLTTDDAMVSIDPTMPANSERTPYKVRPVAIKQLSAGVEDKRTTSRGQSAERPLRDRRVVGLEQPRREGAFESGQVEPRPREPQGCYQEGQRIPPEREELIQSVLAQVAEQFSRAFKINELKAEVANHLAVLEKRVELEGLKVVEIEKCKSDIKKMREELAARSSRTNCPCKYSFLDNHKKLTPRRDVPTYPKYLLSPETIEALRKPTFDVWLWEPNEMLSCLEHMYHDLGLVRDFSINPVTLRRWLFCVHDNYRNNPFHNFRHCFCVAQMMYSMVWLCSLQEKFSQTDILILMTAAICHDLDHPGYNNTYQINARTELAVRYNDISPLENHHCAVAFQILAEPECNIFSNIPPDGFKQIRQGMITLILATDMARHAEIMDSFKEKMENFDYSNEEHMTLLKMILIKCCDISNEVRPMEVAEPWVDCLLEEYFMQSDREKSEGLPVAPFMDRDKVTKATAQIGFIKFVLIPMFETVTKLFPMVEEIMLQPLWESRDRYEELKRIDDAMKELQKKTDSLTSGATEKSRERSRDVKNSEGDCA
Sequence of Murine PDE9A (O70628 whole entry): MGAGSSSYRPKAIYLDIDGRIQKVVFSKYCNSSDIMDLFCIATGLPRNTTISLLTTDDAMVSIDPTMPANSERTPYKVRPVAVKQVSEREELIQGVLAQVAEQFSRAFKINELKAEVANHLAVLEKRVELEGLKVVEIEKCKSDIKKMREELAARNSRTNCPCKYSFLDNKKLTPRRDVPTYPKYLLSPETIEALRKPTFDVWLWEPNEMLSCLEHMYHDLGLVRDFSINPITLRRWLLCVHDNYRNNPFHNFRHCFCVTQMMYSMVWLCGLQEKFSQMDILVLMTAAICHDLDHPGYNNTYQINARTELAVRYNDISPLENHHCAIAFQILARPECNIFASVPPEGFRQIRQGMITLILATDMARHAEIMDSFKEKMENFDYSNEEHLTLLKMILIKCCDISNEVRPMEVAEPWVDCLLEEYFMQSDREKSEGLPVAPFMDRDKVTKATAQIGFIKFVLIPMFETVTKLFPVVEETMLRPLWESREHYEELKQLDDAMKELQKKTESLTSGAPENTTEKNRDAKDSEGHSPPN

As for `CC(C)Cn1c(=O)n(C)c(=O)c2[nH]cnc21` [IBMX], the “inhibition on the isolated enzyme” value at PDE9A is recorded as “no inhibition”. The inhibition result at Murine PDE9A is “not inhibited”. With `CCC(CC)n1ncc2c(=O)[nH]c(CC(C)C(F)(F)F)nc21` (stereo not drawn) [Example 22, 1-(1-Ethylpropyl)-6-(3,3,3-trifluoro-2-methylpropyl)-1,5-dihydro-4H-pyrazolo[3,4-d]pyrimidin-4-one], the melting point was 156 °C.

Molecule `CCC(CC)n1ncc2c(=O)[nH]c(CC3CCCO3)nc21` (stereo not drawn) [Example 11, 1-(1-Ethylpropyl)-6-(tetrahydro-2-furanylmethyl)-1,5-dihydro-4H-pyrazolo[3,4-d]-pyrimidin-4-one] had a melting point of 136 °C. `O=c1[nH]c(CC2CCCO2)nc2c1cnn2C1CCCC1` (stereo not drawn): the melting point stood at 179 °C.

`CC1CCC(Cc2nc3c(cnn3C3CCCC3)c(=O)[nH]2)CC1` (stereo not drawn) [Example 15, 1-Cyclopentyl-6-[(4-methylcyclohexyl)methyl]-1,5-dihydro-4H-pyrazolo[3,4-d]-pyrimidin-4-one] had a melting point of 126 °C. In the case of `CC(=O)Nc1ccc(-c2c[nH]c(=O)cn2)cc1` [SKF94120], the “inhibition on the isolated enzyme” value on PDE9A is on record as “no inhibition”. In turn, `O=c1[nH]c(CC2C=CCC2)nc2c1cnn2C1CCCC1` (stereo not drawn) registered a melting point of 166 °C.

Molecule `CCC(CC)n1ncc2c(=O)[nH]c(CC(C)C)nc21` [Example 9, 1-(1-Ethylpropyl)-6-isobutyl-1,5-dihydro-4H-pyrazolo[3,4-d]pyrimidin-4-one] displayed a melting point of 161 °C. `CCOC(=O)CCc1nc2c(cnn2C2CCCC2)c(=O)[nH]1` [Example 18, Ethyl 4-[1-cyclopentyl-4-oxo-4,5-dihydro-1H-pyrazolo[3,4-d]pyrimidin-6-yl]-propionate] displayed a melting point of 185 °C. Consider `CCC(CC)n1ncc2c(=O)[nH]c(CC3CCCC3)nc21` [Example 21, 6-(Cyclopentylmethyl)-1-(1-ethylpropyl)-1,5-dihydro-4H-pyrazolo[3,4-d]pyrimidin-4-one], for which the melting point is 156 °C. For the molecule `CCOC(=O)CCc1nc2c(cnn2C(CC)CC)c(=O)[nH]1` [Example 14, Ethyl 4-[1-(1-ethylpropyl)-4-oxo-4,5-dihydro-1H-pyrazolo[3,4-d]pyrimidin-6-yl]-propionate], the melting point was determined as 118 °C. `CCC(CC)n1ncc2c(=O)[nH]c(CC3C=CCC3)nc21` (stereo not drawn) displayed a melting point of 128 °C. `O=c1[nH]c(CCCO)nc2c1cnn2C1CCCC1` [Example 2, 1-Cyclopentyl-6-(3-hydroxypropyl)-1,5-dihydro-4H-pyrazolo[3,4-d]pyrimidin-4-one] displayed a melting point of 138 °C. On to `COc1ccc(C2CNC(=O)C2)cc1OC1CCCC1` (stereo not drawn) [rolipram], for which, at PDE9A, the “inhibition on the isolated enzyme” value is on record as “no inhibition”. As to `CCC(CC)n1ncc2c(=O)[nH]c(CCC(C)C)nc21` [Example 8, 1-(1-Ethylpropyl)-6-isopentyl-1,5-dihydro-4H-pyrazolo[3,4-d]pyrimidin-4-one], the melting point came out at 127 °C. Take `O=c1[nH]c(CC2CCCCC2)nc2c1cnn2C1CCCC1`: the melting point was found to be 147 °C. In turn, `CCC(C)Cc1nc2c(cnn2C(CC)CC)c(=O)[nH]1` (stereo not drawn) [Example 7, 1-(1-Ethylpropyl)-6-(2-methylbutyl)-1,5-dihydro-4H-pyrazolo[3,4-d]pyrimidin-4-one] yielded a melting point of 121 °C. On the same count and under the same terms, with `CCCc1nc2c(cnn2C(CC)CC)c(=O)[nH]1` [Example 10, 1-(1-Ethylpropyl)-6-propyl-1,5-dihydro-4H-pyrazolo[3,4-d]pyrimidin-4-one] the figure was 127 °C.

As to `OCCN(CCO)c1nc(N2CCCCC2)c2nc(N(CCO)CCO)nc(N3CCCCC3)c2n1` [dipyridamole], the “inhibition on the isolated enzyme” value at PDE9A is given as “no inhibition”. Turning to `CCC(C)Cc1nc2c(cnn2C2CCCC2)c(=O)[nH]1` (stereo not drawn), the melting point is 86 °C. `CCOC(=O)C1=C[C@]2(CC)CCCN3CCc4c(n1c1ccccc41)[C@@H]32` [vinpocetine]: at PDE9A, the “inhibition on the isolated enzyme” value is reported as “no inhibition”. On to `CC(C)CCc1nc2c(cnn2C2CCCC2)c(=O)[nH]1` [Example 5, 1-Cyclopentyl-6-(3-methylbutyl)-1,5-dihydro-4H-pyrazolo[3,4-d]pyrimidin-4-one], for which the melting point worked out at 133 °C. Regarding `CC(Cc1nc2c(cnn2C2CCCC2)c(=O)[nH]1)C(F)(F)F` (stereo not drawn) [Example 23, 1-(1-Cyclopentyl)-6-(3,3,3-trifluoro-2-methylpropyl)-1,5-dihydro-4H-pyrazolo[3,4-d]pyrimidin-4-one], the melting point was 166 °C.
